Laboratory results taken from patent US11053226B2, “KRAS G12C inhibitors and methods of using the same” (Amgen Inc., priority 2018, dated 2021).
Where two headings read alike, the source gives them in different places.

Biological target: GDP-bound KRAS protein (aa 1-169), containing both G12C and C118A amino acid substitutions (Homo sapiens (Human), UniProt P01116, C118A/G12C)
Experiment: Coupled Nucleotide Exchange Assay
Format: biochemical
Description: For compounds in Table 9, the following assay conditions were employed:
Coupled Nucleotide Exchange Assay:
The assay plates were then read on a PerkinElmer EnVision Multilabel Reader, using AlphaScreen® technology, and data were analyzed using a 4-parameter logistic model to calculate IC50 values.

[1] = read-out: Coupled Exchange IC50 (2 h), 2 h compound pre-incubation
[2] = read-out: Coupled Exchange IC50 (20 h), 20 h compound pre-incubation
[3] = first Coupled Exchange column, compound pre-incubation probably 5 min (rest of head not shown; b435 lists 5 min, 2 hours or 20 hours), read-out: Coupled Exchange IC50
[4] = second Coupled Exchange column, read-out: Coupled Exchange IC50
[5] = third Coupled Exchange column, compound pre-incubation probably 20 hours (rest of head not shown; b435 lists 5 min, 2 hours or 20 hours), read-out: Coupled Exchange IC50

Chain of GDP-bound KRAS protein (aa 1-169), containing both G12C and C118A amino acid substitutions (P01116 other isoform, or with tags, fused parts or gaps G12C/C118A): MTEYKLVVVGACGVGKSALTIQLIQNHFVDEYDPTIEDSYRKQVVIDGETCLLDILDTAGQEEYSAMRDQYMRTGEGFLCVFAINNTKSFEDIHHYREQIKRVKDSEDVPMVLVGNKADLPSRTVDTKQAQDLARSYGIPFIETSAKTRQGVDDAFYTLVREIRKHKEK

**Q.** Which IC50 [1] does the source give for `C=CC(=O)N1CC(NC(=O)Cn2cc(-c3ccccc3OC)c3cc(-c4ccccc4OC)ccc32)C1` [Example 209] here?
**A.** Its IC50 is 14.1 µM.

**Q.** And the IC50 [2]?
**A.** The IC50 was 3.01 µM.

**Q.** `C=CC(=O)N1CC(NC(=O)Cn2c(C3CC3)c(-c3cnccc3C(C)C)c3cc(Cl)cc(C)c32)C1` [Example 324] was tested. Which IC50 [3] did it give?
**A.** Its IC50 is 2.42 µM.

**Q.** `C=CC(=O)N1CC(NC(=O)Cn2c(C)c(-c3cnccc3C3=CCCCCC3)c3cc(Cl)cc(C)c32)C1` [Example 340] was tested. Which IC50 [3] did it give?
**A.** Its IC50 is 0.89 µM.

**Q.** With `C=CC(=O)N1CC(NC(=O)Cn2ccc3cc([N+](=O)[O-])ccc32)C1` [Example 232] as the compound, how does the IC50 [1] read?
**A.** The IC50 was greater than 250 µM.

**Q.** And the IC50 [2]?
**A.** The IC50 was 94.1 µM.

**Q.** What does the source list for `C=CC(=O)N1CC(NC(=O)Cn2ccc3cc(Br)ccc32)C1` [Example 180]?
**A.** IC50 (read-out: Coupled Exchange IC50 (5 min), 5 min compound pre-incubation): 201 µM; IC50 [1]: > 250 µM; IC50 [2]: 5.5 µM

**Q.** `C=CC(=O)N1CC(NC(=O)Cn2c(C)c(-c3c(OC)cccc3OC)c3cc(Cl)cc(C)c32)C1` [Example 343] was tested. Which IC50 [3] did it give?
**A.** Its IC50 is 13.6 µM.

**Q.** For `C=CC(=O)N1CC(NC(=O)Cn2ccc3cc(I)ccc32)C1` [Example 188], which IC50 [1] is on record?
**A.** The IC50 was 22.2 µM.

**Q.** And the IC50 [2]?
**A.** The IC50 was 3.71 µM.

**Q.** How did the IC50 [3] turn out when `C=CC(=O)N1CC(NC(=O)Cn2cc(CC(=O)N3CCc4ccc(C(=O)O)cc4C3)c3cc(Br)ccc32)C1` [Example 330] was run?
**A.** The IC50 was 36.6 µM.

**Q.** `C=CC(=O)N1CC(NC(=O)Cn2cc(CC(=O)N3CCCC4(CCCN(C)C4)C3)c3cc(Br)ccc32)C1` (stereo not shown) [Example 322] was tested. Which IC50 [4] did it give?
**A.** The IC50 was 2.07 µM.

**Q.** For `C=CC(=O)N1CC(NC(=O)Cn2c(C)c(CN3CCN(c4ccc(C#N)cn4)CC3)c3cc(Br)ccc32)C1` [Example 315], which IC50 [4] is on record?
**A.** The IC50 was 6.22 µM.

**Q.** With `C=CC(=O)N1CC(NC(=O)Cn2cc(CC(=O)N3CCCCC3CN3CCCCC3)c3cc(Br)ccc32)C1` (stereo not shown) [Example 326] as the compound, how does the IC50 [3] read?
**A.** The IC50 was 26.1 µM.

**Q.** For `C=CC(=O)N1CC(N(C)C(=O)Cn2c(C)c(-c3cnccc3C3=CCCCC3)c3cc(Cl)cc(C)c32)C1` [Example 337], which IC50 [3] is on record?
**A.** Its IC50 is 2.02 µM.

**Q.** What does the source list for `C=CC(=O)N1CC(NC(=O)Cn2cc(-c3cccnc3)c3cc(Br)ccc32)C1` [Example 206]?
**A.** IC50 [1]: 14.1 µM; IC50 [2]: 2.84 µM

**Q.** For `C=CC(=O)N1CC(NC(=O)Cn2ccc3ccc(Br)cc32)C1` [Example 182], which IC50 [1] is on record?
**A.** Its IC50 is greater than 250 µM.

**Q.** What about the IC50 [2] of the same compound?
**A.** Its IC50 is greater than 250 µM.

**Q.** Which IC50 [1] does the source give for `C=CC(=O)N1CC(NC(=O)Cn2cc(-c3c(C)ccc4cn[nH]c34)c3cc(-c4c(C)ccc5cn[nH]c45)ccc32)C1` [Example 205] here?
**A.** Its IC50 is 80.5 µM.

**Q.** And the IC50 [2]?
**A.** Its IC50 is 11.4 µM.

**Q.** How did the IC50 [1] turn out when `C=CC(=O)N1CC(NC(=O)Cn2ccc3cc(C#N)ccc32)C1` [Example 191] was run?
**A.** Its IC50 is greater than 250 µM.

**Q.** What about the IC50 [2] of the same compound?
**A.** Its IC50 is greater than 250 µM.

**Q.** With `C=CC(=O)N1CC(N(C)C(=O)Cn2ccc3c(C)c(Br)ccc32)C1` [Example 350] as the compound, how does the IC50 [3] read?
**A.** Its IC50 is 237 µM.

**Q.** And the IC50 [5]?
**A.** The IC50 was 1.53 µM.

**Q.** With `C=CC(=O)N1CC(NC(=O)Cn2cc(C(=O)C(=O)O)c3ccccc32)C1` [Example 201] as the compound, how does the IC50 [1] read?
**A.** Its IC50 is greater than 250 µM.

**Q.** And the IC50 [2]?
**A.** Its IC50 is greater than 250 µM.

**Q.** How did the IC50 [1] turn out when `C=CC(=O)N1CC(NC(=O)Cn2ccc3ccc(Cl)cc32)C1` [Example 202] was run?
**A.** Its IC50 is greater than 250 µM.

**Q.** And the IC50 [2]?
**A.** Its IC50 is greater than 250 µM.

**Q.** Which IC50 [1] does the source give for `C=CC(=O)N1CC(NC(=O)Cn2c3c(c4cc(Br)ccc42)CNCC3)C1` [Example 249] here?
**A.** The IC50 was 54.6 µM.

**Q.** And the IC50 [2]?
**A.** The IC50 was 21.7 µM.

**Q.** Which results are given for `C=CC(=O)N1CC(N(C)C(=O)Cn2ccc3cc(Br)c(C)cc32)C1` [Example 357]?
**A.** IC50 [3]: > 250 µM; IC50 [5]: 6.78 µM

**Q.** What does the source list for `C=CC(=O)N1CC(N(C)C(=O)Cn2ccc3cc(Cl)ccc32)C1` [Example 358]?
**A.** IC50 [3]: > 250 µM; IC50 [5]: 3.2 µM

**Q.** For `C=CC(=O)N1CC(NC(=O)Cn2cc(-c3ccc4ccccc4c3)c3cc(Br)cc(C)c32)C1` [Example 264], which IC50 [1] is on record?
**A.** Its IC50 is 9.6 µM.

**Q.** And the IC50 [2]?
**A.** The IC50 was 2.75 µM.

**Q.** Which IC50 [3] does the source give for `C=CC(=O)N1C[C@H](NC(=O)Cn2ccc3cc(Br)ccc32)[C@@H]1C` [Example 363] here?
**A.** The IC50 was greater than 250 µM.

**Q.** What about the IC50 [5] of the same compound?
**A.** Its IC50 is 2.22 µM.

**Q.** For `C=CC(=O)N1CC(NC(=O)Cn2c3ccc(Br)cc3c3ccncc32)C1` [Example 259], which IC50 [1] is on record?
**A.** The IC50 was 26.8 µM.

**Q.** And the IC50 [2]?
**A.** Its IC50 is 2.88 µM.

**Q.** With `C=CC(=O)N1CC(NC(=O)Cn2c(C)c(-c3cccnc3N3CCC(C)CC3)c3cc(Cl)cc(C)c32)C1` [Example 344] as the compound, how does the IC50 [3] read?
**A.** Its IC50 is 0.88 µM.

**Q.** How did the IC50 [4] turn out when `C=CC(=O)N1CC(NC(=O)Cn2c3ccccc3c3ccc(Cl)nc32)C1` [Example 280] was run?
**A.** The IC50 was greater than 250 µM.

**Q.** And the IC50 [5]?
**A.** The IC50 was greater than 62.5 µM.

**Q.** What does the source list for `C=CC(=O)N1CC(NC(=O)Cn2c(C(=O)OC)cc3cc(Br)ccc32)C1` [Example 181]?
**A.** IC50 [1]: > 250 µM; IC50 [2]: 6.47 µM

**Q.** How did the IC50 [3] turn out when `C=CC(=O)N1CC(NC(=O)Cn2c(C)c(-c3cccnc3OCC(C)C)c3cc(Cl)cc(C)c32)C1` [Example 345] was run?
**A.** The IC50 was 4.43 µM.

**Q.** For `C=CC(=O)N1CC(NC(=O)Cn2ccc3c(Cl)c(Cl)ccc32)C1` [Example 317], which IC50 [4] is on record?
**A.** Its IC50 is 15.5 µM.

**Q.** How did the IC50 [3] turn out when `C=CC(=O)N1CC(NC(=O)Cn2cc(CC(=O)N3CCC4(CCOCC4)C3)c3cc(Br)ccc32)C1` [Example 328] was run?
**A.** The IC50 was 31 µM.

**Q.** For `C=CC(=O)N1CC(NC(=O)Cn2c(C(=O)OC)cc3c(Cl)c(Cl)ccc32)C1` [Example 220], which IC50 [1] is on record?
**A.** Its IC50 is 12.2 µM.

**Q.** What about the IC50 [2] of the same compound?
**A.** The IC50 was 1.89 µM.

**Q.** What does the source list for `C=CC(=O)N1CC(CO)(N(C)C(=O)Cn2ccc3cc(Br)ccc32)C1` [Example 354]?
**A.** IC50 [3]: > 250 µM; IC50 [5]: > 62.5 µM
